Source: patent US20260217683A1, “PYRIDAZINONE HETEROCYCLIC COMPOUND MYOSIN II INHIBITOR AND USE THEREOF” (Xizang Haisco Pharmaceutical Co., Ltd., priority 2023, published 2026)
Like-named read-outs stand apart in the source and are kept apart here.

How the values were obtained:
[1] = test system: rabbit skeletal muscle myosin; assay: Inhibition of hydrolysis of ATP by rabbit skeletal muscle myosin; type: biochemical
How it was run: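 Actin-activated ATPase: F-actin plus rabbit skeletal myosin II with compound in Tris-HCl pH 7.5/KCl/EGTA/MgCl2, started with ATP (3 mM working stock) and run 60 min at 37 °C. Released Pi measured by CytoPhos absorbance at 650 nm against a phosphate standard curve; IC50 fitted from inhibition relative to uninhibited myosin.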

[2] = molecular target: T1, smooth muscle myosin S1 (Gallus gallus, UniProt P10587); assay: Inhibition of hydrolysis of ATP by smooth muscle myosin S1 fragments; type: biochemical; settings: 100 μM compound
T1 construct: purchased Cytoskeleton #CS-MYS05
How it was run: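 Smooth muscle myosin S1 fragment (0.7 mg/mL in PM12 buffer with 1 mM DTT) was mixed with compound and F-actin polymer prepared from cardiac actin, then 5 mM ATP working solution started the reaction at 37° C. for 20 min. Released Pi was measured with CytoPhos reagent at 650 nm against a standard curve, and inhibition was calculated relative to positive control wells.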

[3] = Pharmacokinetic experiment in mouse muscle tissue (tibialis anterior / plasma); type: in vivo, C57 mice; settings: male, C57, tibialis anterior muscle / plasma, oral, intragastric 10 mg/kg, read-out: Ratio = Tibialis anterior Conc./Plasma Conc.
Protocol: (§1) 1. Experimental animals: Male C57 mice, 22-25 g, 6 mice/compound. Purchased from Chengdu Ddossy Experimental Animals Co., Ltd.
2. Experimental design: On the day of the experiment, C57 mice were randomly grouped according to their body weight. The animals were fasted with water available for 12 to 14 h one day before the administration and were fed 4 h after the administration. Administration was performed as per Table 10.1.

[4] = Pharmacokinetic experiment in mice; type: in vivo; settings: male, C57, po; mouse plasma, i.g. (10 mg/kg)
Protocol: as §1
2. Experimental design: On the day of the experiment, 12 C57 mice were randomly grouped according to their body weight. The animals were fasted with water available for 12 to 14 h one day before the administration and were fed 4 h after the administration.
Before and after the administration, 0.06 mL of blood was taken from the orbit of the animals under isoflurane anesthesia and placed in an EDTAK2 centrifuge tube. The blood was centrifuged at 5000 rpm and 4° C. for 10 min to collect the plasma. The blood collection time points for the intravenous group and intragastric administration group were: 0 m, 5 m, 15 min, 30 min, 1 h, 2 h, 4 h, 7 h and 24 h. Before analysis and detection, all samples were stored at −80° C., and a quantitative analysis of samples was performed using LC-MS/MS.

[5] = molecular target: T2, cardiac myosin SII (Bos taurus, UniProt Q9BE39); assay: Inhibition of hydrolysis of ATP by cardiac myosin SII; type: biochemical; settings: 100 μM compound
T2 construct: purchased Cytoskeleton #MYO3-A
How it was run: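 Bovine cardiac myosin with preformed F-actin in 15 mM Tris-HCl pH 7.5, 10 mM KCl, 2 mM MgCl2, 0.1 mM EGTA; compounds at 100 μM final, ATP from 3 mM working solution, 2 h at 37 °C. Released Pi measured colorimetrically at 650 nm against a Pi standard curve; % inhibition vs. DMSO control.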

[6] = molecular target: T3, hERG potassium ion channel (Homo sapiens, UniProt Q12809); assay: Effect on hERG potassium ion channel (manual patch-clamp, CHO cells); type: cell-based; settings: CHO cells stably expressing hERG, whole cell patch-clamp; read-out: IC50 of the inhibitory effect on hERG potassium channel current
T3 construct: expressed in transfected cells
Excerpt: 1. Experimental platform: electrophysiological manual patch-clamp system
2. Cell line: Chinese hamster ovary (CH—O) cell lines stably expressing hERG potassium ion channel
3. Experimental method: in CHO (Chinese Hamster Ovary) cells stably expressing hERG potassium channel, whole cell patch-clamp technique was used to record hERG potassium channel current at room temperature. The glass microelectrode was made of a glass electrode blank (BF150-86-10, Sutter) by a puller. The tip resistance after filling the liquid in the electrode was about 2-5 MQ. The glass microelectrode can be connected to the patch-clamp amplifier by inserting the glass microelectrode into an amplifier probe. The clamping voltage and data recording were controlled and recorded by the pClamp 10 software through a computer. The sampling frequency was 10 kHz, and the filtering frequency was 2 kHz. After the whole cell records were obtained, the cells were clamped at −80 mV, and the step voltage that induced the hERG potassium current (IhERG) was depolarized from −80 mV to +20 mV for 2 s, then repolarized to −50 mV, and returned to −80 mV after 1 s. This voltage stimulation was given every 10 s, and the administration process was started after the hERG potassium current was confirmed to be stable (at least 1 minute). The compound was administered for at least 1 minute at each test concentration, and at least 2 cells (n≥2) were tested at each concentration.
4. Data processing: Data analysis processing was carried out by using pClamp 10, GraphPad Prism 5 and Excel software. The inhibition degree of hERG potassium current (peak value of hERG tail current induced at −50 mV) at different compound concentrations was calculated by the following formula:
[formula] • where Inhibition % represents the percentage of inhibition of hERG potassium current by the compound, and I and Io represent the amplitude of hERG potassium current after and before the administration, respectively.
Compound IC50 was calculated using GraphPad Prism 5 software by fitting according to the following equation: […]
Among the equation, X represents the Log value of the tested concentration of the test sample, Y represents the inhibition percentage at the corresponding concentration, and Bottom and Top represent the minimum and maximum inhibition percentage, respectively.

[7] = molecular target: T4, CYP3A4 (Homo sapiens, UniProt P08684); assay: CYP450 enzyme inhibition, human liver microsomes, CYP3A4; type: in vitro ADME
T4 construct: incubated with human liver microsomes and test compounds of different concentrations; from tissue; host or cells: human liver microsomes
Protocol: (§2) The purpose of this study was to evaluate the effect of the test compound on the activity of five isoenzymes (CYP1A2, CYP2C9, CYP2C19, CYP2D6 and CYP3A4) of human liver microsomal cytochrome P450 (CYP) by using an in vitro testing system. The specific probe substrates of CYP450 isoenzymes were incubated with human liver microsomes and test compounds of different concentrations, and reduced nicotinamide adenine dinucleotide phosphate (NADPH) was added to initiate the reaction. After the completion of the reaction, the sample was treated and liquid chromatography-tandem mass spectrometry (LC-MS/MS) was used to quantitatively detect metabolites produced by specific substrates, changes in CYP enzyme activity were determined, and IC50 value was calculated to evaluate the inhibitory potential of the test compound on each CYP enzyme subtype.

[8] = molecular target: T5, CYP2D6 (Homo sapiens, UniProt P10635); assay: CYP450 enzyme inhibition, human liver microsomes, CYP2D6; type: in vitro ADME
T5 construct: incubated with human liver microsomes and test compounds of different concentrations; from tissue; host or cells: human liver microsomes
Protocol: as §2

[9] = molecular target: T6, CYP2C19 (Homo sapiens, UniProt P33261); assay: CYP450 enzyme inhibition, human liver microsomes, CYP2C19; type: in vitro ADME
T6 construct: incubated with human liver microsomes and test compounds of different concentrations; from tissue; host or cells: human liver microsomes
Protocol: as §2

[10] = molecular target: T7, CYP1A2 (Homo sapiens, UniProt P05177); assay: CYP450 enzyme inhibition, human liver microsomes, CYP1A2; type: in vitro ADME
T7 construct: incubated with human liver microsomes and test compounds of different concentrations; from tissue; host or cells: human liver microsomes
T7 sequence (P05177 1-516): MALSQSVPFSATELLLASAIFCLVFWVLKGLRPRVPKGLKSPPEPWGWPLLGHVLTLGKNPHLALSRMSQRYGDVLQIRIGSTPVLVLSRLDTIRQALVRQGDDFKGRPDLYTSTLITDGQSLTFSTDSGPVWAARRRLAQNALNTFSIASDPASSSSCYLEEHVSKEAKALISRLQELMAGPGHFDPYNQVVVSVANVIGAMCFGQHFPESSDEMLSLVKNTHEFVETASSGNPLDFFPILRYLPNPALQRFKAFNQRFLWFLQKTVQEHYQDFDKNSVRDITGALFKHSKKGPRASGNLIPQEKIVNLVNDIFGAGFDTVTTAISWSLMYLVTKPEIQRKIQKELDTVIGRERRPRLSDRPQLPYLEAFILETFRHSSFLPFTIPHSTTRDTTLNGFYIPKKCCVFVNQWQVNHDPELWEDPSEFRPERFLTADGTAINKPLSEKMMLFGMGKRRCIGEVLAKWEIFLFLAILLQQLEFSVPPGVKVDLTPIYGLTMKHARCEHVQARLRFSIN
Protocol: as §2

[11] = molecular target: T8, CYP2C9 (Homo sapiens, UniProt P11712); assay: CYP450 enzyme inhibition, human liver microsomes, CYP2C9; type: in vitro ADME
T8 construct: incubated with human liver microsomes and test compounds of different concentrations; from tissue; host or cells: human liver microsomes
Protocol: as §2

[12] = test system: B10-Dmd-KO (Mdx) mice; assay: PK/PD detection of mouse model with Dmd (Mdx) gene mutation, plasma CK; type: in vivo; settings: 10 mpk single administration, oral
Excerpt: Experimental objective: Bl0-Dmd-KO (Mdx) mice are DMD function-deficient mice caused by frameshift mutations in the Dmd gene. […] This study has investigated the effects on CK and TNNI2 in the plasma of Mdx mice upon administration of compounds.
Experimental animal: B10-Dmd-KO (C57BL/10ScSnJGpt-Dmdem3Cd4/Gpt), male, 5-7 weeks old, weight 28-30 g, supplier. Gempharmatech Co., Ltd.;
• 1) Running training (D-5): Mdx mice underwent running training in batches. The training parameters were set as three time periods, i.e., the initial speed of 4 m/min for 2 min, then 8 m/min for 8 min, and finally 12 m/min for 30 min, a total of 40 min; • 2) Gripping strength test (D-2): each round was measured three times, and three rounds were performed; • 3) Grouping (DO): the animals were anesthetized by inhalation of isoflurane (concentration: 5%, gas flow rate: 1 L/min), and then a capillary tube was used to collect blood (about 150 μL) via orbital venous sinus into a 0.6 mL centrifuge tube containing EDTA anticoagulant, the plasma wad separated, and the CK value was detected, which was used as the basic value for grouping; • 4) Administration, grasping, and blood collection (D1): The compounds were dissolved in the vehicle 5% DMA+5% HS-15+90% Saline, then orally administered to the mice, and then the grip strength test was conducted (three tests per round for three rounds). […] A capillary tube was used to collect blood (>300 μL) via orbital venous sinus into a 0.6 mL centrifuge tube containing EDTA anticoagulant, and then the animals were euthanized to collect the tibialis anterior muscle (left leg), soleus muscle (both legs) and cardiac muscle, which were weighed and recorded, placed in a homogenization tube and quickly frozen in liquid nitrogen, then stored at −80° C.
Sample processing: After the whole blood anticoagulated with EDTA was centrifuged at 3000 rpm and 4° C. for 10 min, the […] was collected and subpackaged. The separated […] was subjected to a biochemical analyzer (Fully automatic biochemical analyzer Roche C311) to detect the CK value and TNN12 value (Mouse TNNI2 Elisa Kit, ABBEXA, E2207370Y); The […] concentration of the compound and the drug concentration in tibialis anterior muscle, soleus muscle and cardiac muscle were measured by LC/MS instrument.

[13] = inhibition of hydrolysis of ATP, class symbols, read-out: Rabbit skeletal muscle myosin (IC50)
[14] = read-out: IC50 for inhibition of hydrolysis of ATP by rabbit skeletal muscle myosin

T1 sequence (P10587 84-789 limits assumed): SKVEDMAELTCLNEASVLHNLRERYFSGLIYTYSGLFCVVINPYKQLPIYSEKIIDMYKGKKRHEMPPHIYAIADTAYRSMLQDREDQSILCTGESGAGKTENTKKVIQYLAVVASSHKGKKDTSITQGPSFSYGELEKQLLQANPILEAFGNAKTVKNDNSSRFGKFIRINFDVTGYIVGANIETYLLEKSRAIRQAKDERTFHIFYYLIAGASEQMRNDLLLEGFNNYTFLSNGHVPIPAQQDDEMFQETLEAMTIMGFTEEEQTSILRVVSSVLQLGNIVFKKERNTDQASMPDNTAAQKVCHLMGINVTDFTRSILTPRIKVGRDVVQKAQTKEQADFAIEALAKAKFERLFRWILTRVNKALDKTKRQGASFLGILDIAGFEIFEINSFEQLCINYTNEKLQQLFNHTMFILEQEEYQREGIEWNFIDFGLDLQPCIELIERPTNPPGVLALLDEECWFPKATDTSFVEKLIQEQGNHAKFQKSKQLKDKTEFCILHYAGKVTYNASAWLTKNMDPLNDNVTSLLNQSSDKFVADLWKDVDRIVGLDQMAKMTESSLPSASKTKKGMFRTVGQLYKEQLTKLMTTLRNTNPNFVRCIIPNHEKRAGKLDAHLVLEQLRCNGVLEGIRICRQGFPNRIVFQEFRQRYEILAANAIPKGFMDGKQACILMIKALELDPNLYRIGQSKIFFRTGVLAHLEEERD
T1 sequence (P02607 whole entry partner, the tested form may be a part): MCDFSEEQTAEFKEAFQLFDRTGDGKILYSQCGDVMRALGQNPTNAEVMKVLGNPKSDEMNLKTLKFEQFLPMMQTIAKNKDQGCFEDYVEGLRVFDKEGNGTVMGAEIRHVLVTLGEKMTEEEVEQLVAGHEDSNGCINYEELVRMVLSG
T2 sequence (Q9BE39 whole entry): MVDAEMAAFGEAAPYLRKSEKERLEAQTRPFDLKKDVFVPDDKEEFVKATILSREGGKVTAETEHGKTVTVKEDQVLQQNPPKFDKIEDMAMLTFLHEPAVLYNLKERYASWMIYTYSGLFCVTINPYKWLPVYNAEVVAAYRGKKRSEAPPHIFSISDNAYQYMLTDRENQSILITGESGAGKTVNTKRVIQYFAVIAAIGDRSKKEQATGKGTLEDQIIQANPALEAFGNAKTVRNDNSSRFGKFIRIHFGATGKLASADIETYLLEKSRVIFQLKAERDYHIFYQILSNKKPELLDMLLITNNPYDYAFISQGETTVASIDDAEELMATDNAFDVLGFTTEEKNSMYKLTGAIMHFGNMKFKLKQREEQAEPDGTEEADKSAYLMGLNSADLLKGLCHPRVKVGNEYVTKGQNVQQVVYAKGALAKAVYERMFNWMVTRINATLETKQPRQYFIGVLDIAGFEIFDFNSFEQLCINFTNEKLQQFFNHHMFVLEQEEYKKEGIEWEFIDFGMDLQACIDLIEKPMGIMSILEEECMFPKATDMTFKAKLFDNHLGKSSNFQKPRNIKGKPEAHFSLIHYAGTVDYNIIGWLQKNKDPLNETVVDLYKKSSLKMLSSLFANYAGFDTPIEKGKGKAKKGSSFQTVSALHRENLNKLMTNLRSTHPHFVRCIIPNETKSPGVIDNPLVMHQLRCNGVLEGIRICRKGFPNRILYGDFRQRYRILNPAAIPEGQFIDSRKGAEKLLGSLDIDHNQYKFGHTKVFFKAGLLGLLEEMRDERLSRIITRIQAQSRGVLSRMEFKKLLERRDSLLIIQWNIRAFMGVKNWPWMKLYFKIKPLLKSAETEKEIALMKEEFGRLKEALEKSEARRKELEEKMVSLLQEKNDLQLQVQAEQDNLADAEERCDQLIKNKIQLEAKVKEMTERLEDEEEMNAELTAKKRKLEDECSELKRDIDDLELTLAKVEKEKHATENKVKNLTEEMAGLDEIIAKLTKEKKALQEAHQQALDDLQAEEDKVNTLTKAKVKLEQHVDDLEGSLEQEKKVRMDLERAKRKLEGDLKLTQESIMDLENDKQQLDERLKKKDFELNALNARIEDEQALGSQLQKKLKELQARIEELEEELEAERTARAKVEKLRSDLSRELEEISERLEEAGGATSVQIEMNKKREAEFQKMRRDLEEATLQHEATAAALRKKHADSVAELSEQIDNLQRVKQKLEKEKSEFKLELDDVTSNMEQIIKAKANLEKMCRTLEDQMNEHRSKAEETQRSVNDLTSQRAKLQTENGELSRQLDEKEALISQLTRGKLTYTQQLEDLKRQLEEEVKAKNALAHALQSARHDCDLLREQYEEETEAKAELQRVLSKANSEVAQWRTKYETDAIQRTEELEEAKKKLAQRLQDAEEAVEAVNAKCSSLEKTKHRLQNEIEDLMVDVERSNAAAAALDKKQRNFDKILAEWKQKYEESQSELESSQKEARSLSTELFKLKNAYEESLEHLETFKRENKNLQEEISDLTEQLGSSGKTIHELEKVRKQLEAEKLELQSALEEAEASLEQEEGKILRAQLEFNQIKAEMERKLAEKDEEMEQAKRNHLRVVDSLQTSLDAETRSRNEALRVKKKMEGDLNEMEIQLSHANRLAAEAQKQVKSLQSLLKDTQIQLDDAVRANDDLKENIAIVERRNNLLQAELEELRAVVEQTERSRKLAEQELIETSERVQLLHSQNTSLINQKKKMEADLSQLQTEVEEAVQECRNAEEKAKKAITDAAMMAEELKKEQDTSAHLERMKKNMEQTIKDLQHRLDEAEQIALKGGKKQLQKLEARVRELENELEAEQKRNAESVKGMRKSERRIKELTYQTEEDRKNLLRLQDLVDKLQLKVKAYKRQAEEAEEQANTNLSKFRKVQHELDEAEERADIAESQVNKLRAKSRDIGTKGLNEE
T2 sequence (P85100 whole entry partner): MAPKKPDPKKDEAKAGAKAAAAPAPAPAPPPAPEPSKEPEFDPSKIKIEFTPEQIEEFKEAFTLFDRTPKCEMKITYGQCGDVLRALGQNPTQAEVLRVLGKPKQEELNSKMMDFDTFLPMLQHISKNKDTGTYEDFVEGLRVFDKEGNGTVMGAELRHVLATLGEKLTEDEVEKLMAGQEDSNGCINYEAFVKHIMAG
T2 sequence (Q3SZE5 whole entry partner): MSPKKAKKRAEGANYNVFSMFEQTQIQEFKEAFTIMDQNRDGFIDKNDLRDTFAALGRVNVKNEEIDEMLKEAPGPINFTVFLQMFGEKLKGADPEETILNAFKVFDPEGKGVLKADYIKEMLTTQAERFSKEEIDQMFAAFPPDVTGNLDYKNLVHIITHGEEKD
T3 sequence (Q12809 whole entry): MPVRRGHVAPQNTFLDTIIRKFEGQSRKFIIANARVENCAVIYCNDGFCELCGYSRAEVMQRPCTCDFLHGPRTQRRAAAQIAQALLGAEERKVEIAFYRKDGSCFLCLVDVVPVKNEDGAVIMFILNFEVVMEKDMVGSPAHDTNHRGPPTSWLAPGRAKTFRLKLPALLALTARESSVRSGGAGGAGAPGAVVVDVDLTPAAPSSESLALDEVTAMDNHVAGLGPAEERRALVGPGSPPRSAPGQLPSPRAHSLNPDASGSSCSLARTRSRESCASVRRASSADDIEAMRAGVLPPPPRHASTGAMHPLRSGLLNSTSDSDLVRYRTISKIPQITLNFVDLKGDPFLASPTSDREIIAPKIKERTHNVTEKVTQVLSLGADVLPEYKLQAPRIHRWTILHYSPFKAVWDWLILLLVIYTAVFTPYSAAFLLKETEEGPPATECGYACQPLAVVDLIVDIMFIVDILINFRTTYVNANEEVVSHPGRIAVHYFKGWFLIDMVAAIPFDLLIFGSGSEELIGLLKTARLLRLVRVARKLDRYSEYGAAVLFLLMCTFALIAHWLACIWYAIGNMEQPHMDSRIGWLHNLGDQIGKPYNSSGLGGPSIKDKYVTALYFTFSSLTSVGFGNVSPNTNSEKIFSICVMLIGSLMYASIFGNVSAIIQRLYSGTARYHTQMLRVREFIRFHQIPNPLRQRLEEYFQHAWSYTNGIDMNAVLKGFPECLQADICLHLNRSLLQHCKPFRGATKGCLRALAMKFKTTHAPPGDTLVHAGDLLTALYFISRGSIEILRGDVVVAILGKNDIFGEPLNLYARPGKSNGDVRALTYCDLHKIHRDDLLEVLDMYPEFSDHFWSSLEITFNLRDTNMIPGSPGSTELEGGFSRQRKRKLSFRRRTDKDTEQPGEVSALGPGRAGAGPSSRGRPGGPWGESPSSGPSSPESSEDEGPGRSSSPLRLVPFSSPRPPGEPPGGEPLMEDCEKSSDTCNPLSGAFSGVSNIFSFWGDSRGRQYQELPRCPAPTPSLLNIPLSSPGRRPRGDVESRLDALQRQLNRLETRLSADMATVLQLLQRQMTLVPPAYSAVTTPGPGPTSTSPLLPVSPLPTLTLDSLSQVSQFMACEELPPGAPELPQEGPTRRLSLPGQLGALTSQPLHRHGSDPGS
T4 sequence (P08684 whole entry): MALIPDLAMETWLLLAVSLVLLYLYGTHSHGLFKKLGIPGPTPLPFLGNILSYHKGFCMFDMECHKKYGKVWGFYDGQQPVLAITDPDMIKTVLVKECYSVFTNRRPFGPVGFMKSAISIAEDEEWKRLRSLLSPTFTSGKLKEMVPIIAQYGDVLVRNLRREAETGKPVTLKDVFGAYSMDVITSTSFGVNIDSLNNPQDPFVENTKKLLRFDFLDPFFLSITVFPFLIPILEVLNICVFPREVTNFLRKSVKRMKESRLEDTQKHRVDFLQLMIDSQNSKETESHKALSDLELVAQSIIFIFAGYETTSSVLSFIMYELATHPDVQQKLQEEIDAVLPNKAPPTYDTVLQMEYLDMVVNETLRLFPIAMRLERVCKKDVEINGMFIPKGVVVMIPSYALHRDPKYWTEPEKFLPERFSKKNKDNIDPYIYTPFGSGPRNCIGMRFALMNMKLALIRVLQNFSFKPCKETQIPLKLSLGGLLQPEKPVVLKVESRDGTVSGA

SMILES	IC50 [1, 13] [nM]	IC50 [1, 14] [nM]	inhibition at 100 µM [2] [%]	Kp at 6 h [3]	Kp at 24 h [3]	half-life [4] [h]	inhibition at 100 µM [5] [%]	AUC(0-t) [4] [ng·h/mL]	Cmax [4] [ng/mL]	IC50 [6] [nM]	further results
O=c1ccc(-c2cnc(OCC(F)(F)F)nc2)nn1Cc1ccc2[nH]ncc2c1 [Comparative Example 1, reference compound]						18.9		2210	267	2500	IC50 [7]: > 30 µM; IC50 [8]: 8.81 µM; IC50 [9]: 1.85 µM; IC50 [10]: > 30 µM; IC50 [11]: 4.44 µM
O=c1ccc(-c2cnc(OCC(F)(F)F)nc2)nn1Cc1ccc2c(c1)CC1CC21 (single isomer, unassigned) [Compound 162]	< 2500	800	16				13	6180	688		
O=c1ccc(-c2cnc(C3CC3)nc2)nn1Cc1ccc2c(c1)CC2 [Compound 92]	< 2500	200					17			> 40000	
O=C1CCc2ccc(Cn3nc(-c4cnc(Oc5cncc(F)c5)nc4)ccc3=O)cc21 [Compound 124]	< 2500		-12				4			> 40000	
Cn1cc(Oc2ncc(-c3ccc(=O)n(Cc4ccc5c(c4)CCC5)n3)cn2)cn1 [Compound 128]	2500 to 20000		-2				-10	8320	1090		

Continued, in another order:

IC50 [1, 13] [nM]	IC50 [1, 14] [nM]	inhibition at 100 µM [2] [%]	Kp at 6 h [3]	Kp at 24 h [3]	half-life [4] [h]	inhibition at 100 µM [5] [%]	AUC(0-t) [4] [ng·h/mL]	Cmax [4] [ng/mL]	SMILES	IC50 [6] [nM]	further results
< 2500	300	8	133	165	66.8				O=C1CCc2ccc(Cn3nc(-c4cnc(OCC5(F)CC5)nc4)ccc3=O)cc21 [Compound 135]		
< 2500		3				8	8170	1380	O=c1ccc(-c2cnc(OCC(F)(F)F)nc2)nn1Cc1ccc2c(c1)C1CC1C2 (single isomer, unassigned) [Compound 160]		
< 2500	200	-2	146	178	41.9	22			O=C1CCc2ccc(Cn3nc(-c4cnc(OCC5CC5)nc4)ccc3=O)cc21 [Compound 129]		
< 2500		-3				10			O=C1CCc2ccc(Cn3nc(-c4cnc(C5CC5)nc4)ccc3=O)cc21 [Compound 157]	> 40000	
< 2500	340		175	316					O=c1ccc(-c2cnc(OCC(F)(F)F)nc2)nn1Cc1ccc2c(c1)CC2 [Compound 56]		Inhibition rate of CK values (sampled 24 h after (last) dose) [12]: 88.4%
